Patent US5486597A, “Tetrapeptide derivatives and analogues” (James Black Foundation Limited, priority 1990, dated 1996)
Non-standard residues stand in square brackets, D forms with d. Residues, ends and D or L forms follow the SMILES beside them. *: point of attachment. 2Nal = N[C@@H](Cc1ccc2ccccc2c1)C(=O)O; Boc = CC(C)(C)OC(=O)*

Key:
Format in all cases: cell-based
gastrin receptor [1] = molecular target: T1, gastrin receptor (Mus musculus, UniProt P56481); assay: mouse stomach assay for gastrin activity (isolated stomach, acid secretion); conditions: for pKB mouse stomach / Kb: isolated mouse stomach assay, gastrin antagonism, standard errors less than 5%; for Acid seretion at 10^-5 M test compound, relative to pentagastrin (%): mouse stomach, NS = not significant; for Kb: read-out: pKB mouse stomach (converted)
T1 construct: assayed for gastrin activity using the mouse stomach assay; from tissue; host or cells: isolated mouse stomach
T1 sequence (P56481 1-453): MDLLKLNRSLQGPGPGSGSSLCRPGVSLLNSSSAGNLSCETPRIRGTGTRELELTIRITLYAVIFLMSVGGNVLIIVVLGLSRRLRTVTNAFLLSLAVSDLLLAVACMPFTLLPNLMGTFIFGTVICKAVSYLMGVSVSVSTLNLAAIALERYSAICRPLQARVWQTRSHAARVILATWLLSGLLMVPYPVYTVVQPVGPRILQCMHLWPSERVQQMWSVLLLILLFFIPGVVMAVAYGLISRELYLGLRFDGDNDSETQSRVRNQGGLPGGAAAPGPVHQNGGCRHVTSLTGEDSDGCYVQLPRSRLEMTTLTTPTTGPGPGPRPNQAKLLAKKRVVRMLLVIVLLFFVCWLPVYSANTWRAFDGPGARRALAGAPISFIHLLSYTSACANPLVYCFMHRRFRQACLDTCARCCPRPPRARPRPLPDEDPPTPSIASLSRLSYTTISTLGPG
Protocol: The compounds were assayed for gastrin activity using the mouse stomach assay as described by Black, J. W. and Shankley, N. P., Br. J. Pharmacol., 86, 571-579, (1985), and also in the guinea-pig fundus assay, as follows: […]

gastrin receptor [2] = molecular target: T2, gastrin receptor (Cavia porcellus, UniProt H0VZC5); assay: guinea-pig fundus assay for gastrin activity (stomach muscle strips); conditions: 10^-8 M devazepide present, 60 minute equilibration, agonist e.g. pentagastrin, standard errors less than 5%
T2 construct: Strips of muscle (approximately 2.5 cm by 1 cm) are removed from the proximal area of the stomach; from tissue; host or cells: guinea-pig proximal stomach (fundus) muscle strips
T2 sequence (H0VZC5 1-426): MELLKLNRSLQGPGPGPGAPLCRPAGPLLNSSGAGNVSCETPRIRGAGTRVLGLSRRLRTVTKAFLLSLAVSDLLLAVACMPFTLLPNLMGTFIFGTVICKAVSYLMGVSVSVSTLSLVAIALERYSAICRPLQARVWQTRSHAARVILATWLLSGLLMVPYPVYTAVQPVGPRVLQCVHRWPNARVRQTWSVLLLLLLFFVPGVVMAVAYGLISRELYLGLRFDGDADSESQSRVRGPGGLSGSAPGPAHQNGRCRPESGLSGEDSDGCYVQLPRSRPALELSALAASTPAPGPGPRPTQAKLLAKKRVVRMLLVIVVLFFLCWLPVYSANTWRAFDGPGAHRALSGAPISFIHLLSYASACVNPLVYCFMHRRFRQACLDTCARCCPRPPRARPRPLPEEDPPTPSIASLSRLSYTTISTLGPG
Protocol: The compounds were assayed for gastrin activity using the mouse stomach assay as described by Black, J. W. and Shankley, N. P., Br. J. Pharmacol., 86, 571-579, (1985), and also in the guinea-pig fundus assay, as follows:
The stomach is removed from a male Dunkin-Hartley guinea-pig (250-500 g), and Krebs solution is injected through a hypodermic needle under the top stomach muscle layer. The composition (mM) of the Krebs solution is as follows: Na^+ 143, K^+ 5.9, Ca^2+ 2.5, Mg^2+ 1.2, Cl^- 128, H2 PO4^- 2.2, HCO3^- 24.9, SO4^2- 1.2, dextrose 10. Strips of muscle (approximately 2.5 cm by 1 cm) are removed from the proximal area of the stomach (one from each side) and tied with cotton thread to isotonic transducers under an initial loading tension of 0.35 g.
The preparation is immersed in 20 mls of Krebs solution containing 10^-8 M devazepide (25 μl 2×10^-3 M devazepide/100% DMF solution in 5 dm^3 Krebs) and gassed with 95% O2 /5% CO2. The function of the devazepide is to block possible effects at CCK receptors present in the tissue.
The preparation is washed twice over a 60 minute period then 10 mM KCl is added. At 90 minutes, test compounds (ie. potential antagonists) are added and a further 60 minute equilibration period allowed. After this time, cumulative agonist (e.g. pentagastrin) dose-response curves are constructed.

[3] = molecular target: T3, cholecystokinin receptors (Cavia porcellus, UniProt Q63931); assay: CCK-antagonist activity in isolated guinea-pig gall-bladder strip preparations; conditions: guinea-pig gall-bladder strips; CCK-8 as agonist; test compound incubated for 60 minutes; standard errors less than 5%
T3 construct: Isolated, strip preparations were prepared from gall-bladders removed from male Dunkin-Hartley guinea-pigs; from tissue; host or cells: guinea-pig gall-bladder strips
T3 sequence (Q63931 1-430): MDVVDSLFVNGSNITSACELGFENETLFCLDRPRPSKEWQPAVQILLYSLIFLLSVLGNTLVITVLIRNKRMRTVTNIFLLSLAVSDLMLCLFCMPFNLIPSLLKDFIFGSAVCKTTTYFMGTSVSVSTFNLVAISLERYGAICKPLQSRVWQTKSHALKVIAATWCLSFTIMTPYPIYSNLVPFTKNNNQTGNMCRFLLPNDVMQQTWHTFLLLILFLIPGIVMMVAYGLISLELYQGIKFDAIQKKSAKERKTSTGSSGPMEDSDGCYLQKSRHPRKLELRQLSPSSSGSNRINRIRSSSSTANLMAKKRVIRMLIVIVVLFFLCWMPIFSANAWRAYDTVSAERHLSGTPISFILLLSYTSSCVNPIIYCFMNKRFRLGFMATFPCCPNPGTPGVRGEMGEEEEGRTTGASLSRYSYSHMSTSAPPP
Method in brief: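 Male Dunkin-Hartley guinea-pig gall-bladder strips under 1 g isometric tension in Krebs (0.5 mM Ca²⁺), 37° C, 95% O2/5% CO2, stabilised 90 min. Cumulative CCK-8 concentration-effect curves without and with test compound (60 min preincubation); antagonism expressed as […] by modified competitive analysis.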

Row | Kb (gastrin receptor [1]) [nM] | Kb (gastrin receptor [2]) [nM] | Kb [3] [nM] | Molecule | pKB mouse stomach (gastrin receptor [1]) | Acid seretion at 10^-5 M test compound, relative to pentagastrin (%) (gastrin receptor [1]) | pKB (gastrin receptor [2]) | pKB [3]
1 | – | – | – | CC(C)(C)OC(=O)N[C@@H](Cc1c[nH]c2ccccc12)C(=O)N[C@@H](Cc1ccc2ccccc2c1)C(=O)N[C@@H](CC(=O)O)C(=O)NCCc1ccc(Cl)c(Cl)c1 [Example 42, N-t-Butyloxycarbonyl-L-tryptophyl-L-3-(2-naphthyl)alanyl-L-aspartyl-3,4-dichlorophenethylamide] | 5.2 | 30 | 5.3 | 6.0
2 | – | – | – | COc1ccc(C[C@H](NC(=O)[C@H](CC(=O)O)NC(=O)[C@H](Cc2ccc3ccccc3c2)NC(=O)[C@H](Cc2c[nH]c3ccccc23)NC(=O)OC(C)(C)C)C(N)=O)cc1 [Example 7, N-t-Butyloxycarbonyl-L-tryptophyl-L-3-(2-naphthyl)alanyl-L-aspartyl-L-(4-methoxyphenylalanin)amide] (Boc-W[2Nal]DY(Me)-NH2) | 5.7 | – | 5.3 | 5.8
3 | – | – | – | COc1ccccc1CCNC(=O)[C@H](CC(=O)O)NC(=O)[C@H](Cc1ccc2ccccc2c1)NC(=O)[C@H](Cc1c[nH]c2ccccc12)NC(=O)OC(C)(C)C [Example 40, N-t-Butyloxycarbonyl-L-tryptophyl-L-3-(2-naphthyl)alanyl-L-aspartyl-2-methoxyphenethylamide] | 5.2 | 22 | 5.8 | 7.1
4 | – | – | – | CC(C)(C)OC(=O)N[C@@H](Cc1c[nH]c2ccccc12)C(=O)N[C@@H](Cc1ccc2ccccc2c1)C(=O)N[C@@H](CC(=O)O)C(=O)NCCc1ccc(N)cc1 [Example 46, N-t-Butyloxycarbonyl-L-tryptophyl-L-3-(2-naphthyl)alanyl-L-aspartyl-4-aminophenethylamide] | 5.6 | – | 6.0 | 6.5
5 | 631 | 3160 | 5010 | CC(C)(C)OC(=O)N[C@@H](Cc1c[nH]c2ccccc12)C(=O)N[C@@H](Cc1ccc2ccccc2c1)C(=O)N[C@@H](CC(=O)O)C(=O)N[C@@H](Cc1ccccc1)C(N)=O [Example 1, N-t-Butyloxycarbonyl-L-tryptophyl-L-3-(2-naphthyl)alanyl-L-aspartyl-L-phenylalaninamide] (Boc-W[2Nal]DF-NH2) | – | 65 | – | –
6 | – | – | – | CC(C)(C)OC(=O)N[C@@H](Cc1c[nH]c2ccccc12)C(=O)N[C@@H](Cc1ccc2ccccc2c1)C(=O)N[C@@H](CC(=O)O)C(=O)NCCc1cccc(F)c1 [Example 65, N-t-Butyloxycarbonyl-L-tryptophyl-L-3-(2-naphthyl)alanyl-L-aspartyl-3-fluorophenethylamide] | 5.3 | – | 6.1 | 6.7
7 | – | – | – | CC(C)(C)OC(=O)N[C@@H](Cc1c[nH]c2ccccc12)C(=O)N[C@@H](Cc1ccc2ccccc2c1)C(=O)N[C@@H](CC(=O)O)C(=O)NCCc1ccccc1F [Example 54, N-t-Butyloxycarbonyl-L-tryptophyl-L-3-(2-naphthyl)alanyl-L-aspartyl-2-fluorophenethylamide] | 5.4 | 25 | 6.2 | 6.4
8 | – | – | – | COc1cccc(CCNC(=O)[C@H](CC(=O)O)NC(=O)[C@H](Cc2ccc3ccccc3c2)NC(=O)[C@H](Cc2c[nH]c3ccccc23)NC(=O)OC(C)(C)C)c1 [Example 56, N-t-Butyloxycarbonyl-L-tryptophyl-L-3-(2-naphthyl)alanyl-L-aspartyl-3-methoxyphenethylamide] | 5.6 | – | 5.5 | 7.2
9 | – | – | – | CC(C)(C)OC(=O)N[C@@H](Cc1c[nH]c2ccccc12)C(=O)N[C@@H](Cc1ccc2ccccc2c1)C(=O)N[C@H](CC(=O)O)C(=O)NCCc1ccc(F)cc1 [Example 52, N-t-Butyloxycarbonyl-L-tryptophyl-L-3-(2-naphthyl)alanyl-D-aspartyl-4-fluorophenethylamide] | 5.6 | 25 | 5.9 | 6.4
10 | – | – | – | CC(C)(C)OC(=O)N[C@@H](Cc1c[nH]c2ccccc12)C(=O)N[C@@H](Cc1ccc2ccccc2c1)C(=O)N[C@@H](CC(=O)O)C(=O)N[C@@H]1CCC[C@H]1c1ccccc1 (single isomer, unassigned; diastereomer 1) [Example 31, N-t-Butyloxycarbonyl-L-tryptophyl-L-3-(2-naphthyl)alanyl-L-aspartyl-trans-2-phenylcyclopentylamide (diastereomer 1)] | 5.0 | 40 | 6.1 | 6.5
11 | – | – | – | N-t-Butyloxycarbonyl-L-tryptophyl-L-3-(2-naphthyl)alanyl-L-aspartylphenethylamide [Example 2] | 5.6 | 20 | 5.9 | 6.9
12 | – | – | – | CC(C)(C)OC(=O)N[C@@H](Cc1c[nH]c2ccccc12)C(=O)N[C@@H](Cc1ccc2ccccc2c1)C(=O)N[C@@H](CC(=O)O)C(=O)N[C@@H]1CCC[C@@H]1c1ccccc1 (single isomer, unassigned; diastereomer 1) [Example 33, N-t-Butyloxycarbonyl-L-tryptophyl-L-3-(2-naphthyl)alanyl-L-aspartyl-cis-2-phenylcyclopentylamide (diastereomer 1)] | 5.2 | – | 6.2 | 7.0
13 | 5010 | 1580 | 501 | COc1ccc2[nH]cc(CC(NC(=O)OC(C)(C)C)C(=O)N[C@@H](Cc3ccc4ccccc4c3)C(=O)N[C@@H](CC(=O)O)C(=O)N[C@@H](Cc3ccccc3)C(N)=O)c2c1 (mixture of isomers) [Example 19, N-t-Butyloxycarbonyl-5-methoxy-D,L-tryptophyl-L-3-(2-naphthyl)alanyl-L-aspartyl-L-phenylalaninamide] | – | 80 | – | –
